Tests used:
Assay type in all cases: in vivo
Abutilon theophrasti = test: Post-emergence herbicidal action; conditions: rated visually after about 3 weeks vs untreated controls
Procedure: (§1) a. Post-Emergence Herbicidal Action and Crop Plant Compatibility Seeds of monocotyledonous and dicotyledonous weeds and crop plants were placed in sandy loam in plastic or wood-fiber pots, covered with soil and cultivated in a greenhouse under controlled growth conditions. 2 to 3 weeks after sowing, the test plants were treated at the one-leaf stage. The compounds of the invention, formulated in the form of wettable powders (WP) or as emulsion concentrates (EC), were then sprayed onto the green parts of the plants as aqueous suspension or emulsion with addition of 0.5% additive at a water application rate of 600 l/ha (converted). After the test plants had been kept in the greenhouse under optimum growth conditions for about 3 weeks, the activity of the preparations was rated visually in comparison to untreated controls. For example, 100% activity=the plants have died, 0% activity=like control plants. Tables A1 to A15 below show the effects of selected compounds of the general formula (I) according to Tables I.1 to I.36 on various harmful plants and at an application rate corresponding to 20 g/ha and less, which were obtained by the experimental procedure mentioned above.

Alopecurus myosuroides = test: Post-emergence herbicidal action; conditions: rated visually after about 3 weeks vs untreated controls
Procedure: as §1

Amaranthus retroflexus = test: Post-emergence herbicidal action; conditions: rated visually after about 3 weeks vs untreated controls
Procedure: as §1

Avena fatua = test: Post-emergence herbicidal action; conditions: application rate 20 g/ha, rated visually after about 3 weeks vs untreated controls
Procedure: as §1

Digitaria sanguinalis = test: Post-emergence herbicidal action; conditions: rated visually after about 3 weeks vs untreated controls
Procedure: as §1

Echinochloa crus-galli = test: Post-emergence herbicidal action; conditions: rated visually after about 3 weeks vs untreated controls
Procedure: as §1

Lolium rigidum = test: Post-emergence herbicidal action; conditions: application rate 20 g/ha, rated visually after about 3 weeks vs untreated controls
Procedure: as §1

Matricaria inodora = test: Post-emergence herbicidal action; conditions: rated visually after about 3 weeks vs untreated controls
Procedure: as §1

Pharbitis purpurea = test: Post-emergence herbicidal action; conditions: rated visually after about 3 weeks vs untreated controls
Procedure: as §1

Setaria viridis = test: Post-emergence herbicidal action; conditions: rated visually after about 3 weeks vs untreated controls
Procedure: as §1

Veronica persica = test: Post-emergence herbicidal action
Procedure: as §1

Viola tricolor = test: Post-emergence herbicidal action
Procedure: as §1

Oryza sativa = test: Post-emergence crop plant compatibility
Procedure: a. Post-Emergence Herbicidal Action and Crop Plant Compatibility
as §1, with “Seeds” for “a. Post-Emergence Herbicidal Action and Crop Plant Compatibility Seeds”, “plants.” for “plants. Tables A1 to A15 below show the effects of selected compounds of the general formula (I) according to Tables I.1 to I.36 on various harmful plants and at an application rate corresponding to 20 g/ha and less, which were obtained by the experimental procedure mentioned above.”
Tables A16 to A19 below show the crop plant compatibilities of selected compounds of the general formula (I) according to Tables I.1 to I.36 at an application rate corresponding to 5 g/ha or 20 g/ha, which were obtained in experiments according to the experimental procedure mentioned above. Here, the observed effects on selected crop plants are stated in comparison to the untreated controls (values in %).

Hordeum murinum = test: Post-emergence herbicidal action; conditions: application rate 20 g/ha
Procedure: as §1

Polygonum convolvulus = test: Post-emergence herbicidal action
Procedure: as §1

Stellaria media = test: Post-emergence herbicidal action; conditions: application rate 5 g/ha, rated visually after about 3 weeks vs untreated controls
Procedure: as §1

Row | SMILES | Abutilon theophrasti (efficacy in %) (Abutilon theophrasti; application rate 20 g/ha) | Alopecurus myosuroides (efficacy in %) (Alopecurus myosuroides; application rate 20 g/ha) | Amaranthus retroflexus (efficacy in %) (Amaranthus retroflexus; application rate 20 g/ha) | Avena fatua (efficacy in %) (Avena fatua) | Digitaria sanguinalis (efficacy in %) (Digitaria sanguinalis; application rate 20 g/ha) | Echinochloa crus-galli (efficacy in %) (Echinochloa crus-galli; application rate 20 g/ha) | Lolium rigidum (efficacy in %) (Lolium rigidum) | Matricaria inodora (efficacy in %) (Matricaria inodora; application rate 20 g/ha) | Pharbitis purpurea (efficacy in %) (Pharbitis purpurea; application rate 20 g/ha) | Setaria viridis (efficacy in %) (Setaria viridis; application rate 20 g/ha) | Veronica persica (efficacy in %) (Veronica persica; application rate 20 g/ha) | Viola tricolor (efficacy in %) (Viola tricolor; application rate 20 g/ha) | Oryza sativa (efficacy in %) (Oryza sativa; application rate 5 g/ha) | Polygonum convolvulus (efficacy in %) (Polygonum convolvulus; application rate 20 g/ha) | other results
1 | Cn1c(C(F)(F)F)cc(=O)n(-c2cc(Sc3cccnc3OCC(=O)OC3COC3)c(Cl)cc2F)c1=O [I.1-115] | 100% | 100% | 100% | 80% | 100% | 100% | 80% | 100% | 100% | 100% | 100% | 100% | 20% |  | 
2 | Cn1c(C(F)(F)F)cc(=O)n(-c2cc(Sc3cccnc3OCC(=O)OCC#N)c(Cl)cc2F)c1=O [I.1-176] | 100% | 100% | 100% | 90% | 100% | 100% | 80% | 100% | 100% | 100% | 100% | 100% | 20% |  | 
3 | Cn1c(C(F)(F)F)cc(=O)n(-c2cc(Sc3cccnc3OCC(=O)OCc3ccccn3)c(Cl)cc2F)c1=O [I.1-286] | 100% | 100% | 100% | 80% |  | 100% | 80% | 100% | 100% |  | 100% | 100% | 0% |  | 
4 | COCCOC(=O)CSc1ncccc1Sc1cc(-n2c(=O)cc(C(F)(F)F)n(C)c2=O)c(F)cc1Cl [I.10-1] |  |  |  | 80% |  |  |  |  |  |  | 90% |  |  |  | Abutilon theophrasti (efficacy in %) (Abutilon theophrasti; application rate 5 g/ha): 80%; Alopecurus myosuroides (efficacy in %) (Alopecurus myosuroides; application rate 5 g/ha): 80%; Amaranthus retroflexus (efficacy in %) (Amaranthus retroflexus; application rate 5 g/ha): 80%; Digitaria sanguinalis (efficacy in %) (Digitaria sanguinalis; application rate 5 g/ha): 80%; Echinochloa crus-galli (efficacy in %) (Echinochloa crus-galli; application rate 5 g/ha): 100%; Hordeum murinum (efficacy in %) (Hordeum murinum): 90%; Matricaria inodora (efficacy in %) (Matricaria inodora; application rate 5 g/ha): 90%; Pharbitis purpurea (efficacy in %) (Pharbitis purpurea; application rate 5 g/ha): 80%; Polygonum convolvulus (efficacy in %) (Polygonum convolvulus; application rate 5 g/ha): 100%; Setaria viridis (efficacy in %) (Setaria viridis; application rate 5 g/ha): 80%; Stellaria media (efficacy in %) (Stellaria media): 100%; Viola tricolor (efficacy in %) (Viola tricolor; application rate 5 g/ha): 100%
5 | COCCCOC(=O)CSc1ncccc1Sc1cc(-n2c(=O)cc(C(F)(F)F)n(C)c2=O)c(F)cc1Cl [I.10-26] |  |  |  |  | 100% | 100% | 80% | 100% |  |  |  |  |  |  | Abutilon theophrasti (efficacy in %) (Abutilon theophrasti; application rate 5 g/ha): 100%; Alopecurus myosuroides (efficacy in %) (Alopecurus myosuroides; application rate 5 g/ha): 80%; Amaranthus retroflexus (efficacy in %) (Amaranthus retroflexus; application rate 5 g/ha): 100%; Pharbitis purpurea (efficacy in %) (Pharbitis purpurea; application rate 5 g/ha): 100%; Polygonum convolvulus (efficacy in %) (Polygonum convolvulus; application rate 5 g/ha): 100%; Setaria viridis (efficacy in %) (Setaria viridis; application rate 5 g/ha): 100%; Stellaria media (efficacy in %) (Stellaria media): 100%; Veronica persica (efficacy in %) (Veronica persica; application rate 5 g/ha): 80%; Viola tricolor (efficacy in %) (Viola tricolor; application rate 5 g/ha): 100%
6 | CCOC(COC(=O)COc1ncccc1Oc1cc(-n2c(=O)cc(C(F)(F)F)n(C)c2=O)c(F)cc1[N+](=O)[O-])OCC [I.14-422] | 100% | 100% | 100% | 90% | 100% | 100% | 80% | 90% | 100% | 100% | 100% | 100% |  | 100% | Oryza sativa (efficacy in %) (Oryza sativa; application rate 20 g/ha): 20%
7 | Cn1c(C(F)(F)F)cc(=O)n(-c2cc(Oc3cccnc3OCC(=O)OC3COC3)c(Br)cc2F)c1=O [I.16-115] | 100% | 100% | 100% | 80% | 100% | 100% | 100% | 100% | 100% | 100% | 100% | 100% | 20% | 100% | 
8 | CCS(=O)(=O)NCCOC(=O)COc1ncccc1Oc1cc(-n2c(=O)cc(C(F)(F)F)n(C)c2=O)c(F)cc1Br [I.16-421] | 100% | 100% | 100% | 100% | 100% | 100% | 90% | 100% | 100% | 100% | 100% | 100% | 20% | 100% | 
9 | CCOC(COC(=O)COc1ncccc1Oc1cc(-n2c(=O)cc(C(F)(F)F)n(C)c2=O)c(F)cc1Br)OCC [I.16-422] | 100% | 100% | 100% | 100% | 100% | 100% | 90% | 100% | 100% | 100% | 100% | 100% | 20% | 100% | 
10 | COCCOC(=O)COc1ncc(F)cc1Sc1cc(-n2c(=O)cc(C(F)(F)F)n(C)c2=O)c(F)cc1Cl [I.31-1] | 100% | 90% | 100% |  | 100% | 100% | 80% | 100% | 100% | 100% | 100% | 100% |  |  | Oryza sativa (efficacy in %) (Oryza sativa; application rate 20 g/ha): 20%
11 | Cn1c(C(F)(F)F)cc(=O)n(-c2cc(Oc3cc(F)cnc3OCC(=O)OCC#N)c(Cl)cc2F)c1=O [I.36-176] | 100% | 100% | 100% | 80% | 100% | 100% | 80% | 90% | 100% | 100% | 90% | 100% | 20% | 100% | 
